Measurements reported in US20230250096A1, “SUBSTITUTED PHENYL-1H-PYRROLO[2,3-c] PYRIDINE DERIVATIVES” (Janssen Pharmaceutica NV, priority 2021, published 2023).
Read-outs that look alike come from different tables or passages of the source.

Key:
Format in all cases: cell-based, human
OCI-AML3 cells = assay: Proliferation assay (spheroid confluence, 8 days), OCI-AML3; conditions: read-out: spheroid assay_OCI-AML3 IC50
Procedure, shortened: (§1)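 Absolute IC50 derived from spheroid confluence imaged on day 8, scaled between DMSO (0%) and a cytotoxic low control such as 1 μM staurosporin, fitted with variable slope, bounds fixed at 0 and 100%. Seeding 200 cells/well (300 for KO-52), ultra-low attachment plates, 0.3% DMSO, 37° C.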

MOLM14 cells = assay: Proliferation assay (spheroid confluence, 8 days), MOLM14; conditions: read-out: spheroid assay_MOLM14 IC50
Procedure, shortened: as §1

MEIS1 mRNA expression = MEIS1 mRNA expression assay (Quantigene Singleplex) in MOLM14 cells; conditions: 48 hours incubation
Procedure, shortened: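 Read-out: MEIS1 transcript counts, background-subtracted and divided by RPL28, expressed as fold change over DMSO-treated cells, then dose-response modelled for IC50. MOLM14 cells (3,750/well) received graded compound for 48 h before lysis and QuantiGene hybridization at 55 °C.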

KO-52 cells = assay: Proliferation assay (spheroid confluence, 8 days), KO-52 control cell line; conditions: read-out: spheroid assay_KO-52 IC50
Procedure, shortened: as §1

[1] = Homo sapiens, OCI-AML-3, OCI-AML3

IC50 (OCI-AML3 cells; [1]) [µM]	IC50 (MOLM14 cells; Homo sapiens, MOLM-14, MOLM14) [µM]	IC50 (MEIS1 mRNA expression) [µM]	IC50 (MEIS1 mRNA expression; Homo sapiens, MOLM-14, 48 h) [µM]	IC50 (OCI-AML3 cells; OCI-AML3) [µM]	IC50 (MOLM14 cells; MOLM14) [µM]	Structure (SMILES)	IC50 (KO-52 cells; Homo sapiens) [µM]	IC50 (KO-52 cells) [µM]
0.009	0.008		0.005			CC(=O)N1CCC(C(C)N2CCC(Cc3cn(-c4ccc(F)cc4C(=O)N(C)C(C)C)c4cncc(C)c34)C2)CC1 (single isomer, unassigned) [Compound 116a]	3.8	
0.054	0.028		0.071			COCC(=O)N1CCC(CN2CC[C@@H](Cc3cn(-c4ccc(F)cc4C(=O)N(C)C(C)C)c4cncc(C)c34)C2)CC1 (single isomer, unassigned) [Compound 136]	1.4	
0.012	0.01		0.017			CNC(=O)[C@H]1CC[C@H](CN2CC([C@H](C)c3cn(-c4ccc(F)cc4C(=O)N(C)C(C)C)c4cncc(C)c34)C2)CC1 (single isomer, unassigned) [Compound 164b]	10.4	
0.011	0.007		0.013			Cc1cncc2c1c(C[C@@H]1CCN(C[C@H]3CCNC(=O)CC3)C1)cn2-c1ccc(F)cc1C(=O)N1[C@H](C)CC[C@H]1C (single isomer, unassigned) [Compound 352a]	> 15	
0.263	0.14		0.266			Cc1cncc2c1c(C[C@@H]1CCN(C[C@@H]3CCNC(=O)CC3)C1)cn2-c1ccc(F)cc1C(=O)N1[C@H](C)CC[C@H]1C (single isomer, unassigned) [Compound 352b]	> 15	

Second part, the compound before the results:

Structure (SMILES)	IC50 (OCI-AML3 cells; [1]) [µM]	IC50 (MOLM14 cells; Homo sapiens, MOLM-14, MOLM14) [µM]	IC50 (MEIS1 mRNA expression) [µM]	IC50 (MEIS1 mRNA expression; Homo sapiens, MOLM-14, 48 h) [µM]	IC50 (OCI-AML3 cells; OCI-AML3) [µM]	IC50 (MOLM14 cells; MOLM14) [µM]	IC50 (KO-52 cells; Homo sapiens) [µM]	IC50 (KO-52 cells) [µM]
CC(=O)N1CCC(N2CC[C@H](Cc3cn(-c4ccc(F)cc4C(=O)N(C)C(C)C)c4cncc(C)c34)C2)CC1 (single isomer, unassigned) [Compound 81]	0.1	0.058	0.077				4	
Cc1cncc2c1c(CC1CCN(CC3CCN(C(=O)[C@@H](C)O)CC3)C1)cn2-c1ccc(F)cc1C(=O)N(C)C(C)C (single isomer, unassigned) [Compound 85]	0.022	0.012		0.022			2.2	
Cc1cncc2c1c(CC1CCN(CC3CCN(C(=O)[C@H](C)O)CC3)C1)cn2-c1ccc(F)cc1C(=O)N(C)C(C)C (single isomer, unassigned) [Compound 86]	0.023	0.01		0.021			1.3	
Cc1cncc2c1c(CC1CCN(CC3CCN(C(=O)C(C)(C)O)CC3)C1)cn2-c1ccc(F)cc1C(=O)N(C)C(C)C (single isomer, unassigned) [Compound 125]	0.012	0.011		0.016			7	
CC(=O)N1CCC(N2CC[C@H](Cc3cn(-c4ccc(F)cc4C(=O)N(C)C(C)C)c4cncc(C)c34)C2)C(C)C1 (single isomer, unassigned) [Compound 137a]	0.023	0.015	0.014				1.1	
Cc1cncc2c1c(CC1CCN(CC3CCC(=O)N(C)CC3)C1)cn2-c1ccc(F)cc1C(=O)N(C)C(C)C (single isomer, unassigned) [Compound 184a]			0.023		0.026	0.013	> 15	
Cc1cncc2c1c(CC1CCN(CC3CCC(=O)N(C)CC3)C1)cn2-c1ccc(F)cc1C(=O)N(C)C(C)C (single isomer, unassigned) [Compound 184b]			0.115		0.138	0.052		> 15
Cc1cncc2c1c(C[C@@H]1CCN(CC3CCNC(=O)CC3)C1)cn2-c1ccc(F)cc1C(=O)N1CCC[C@H]1C (single isomer, unassigned) [Compound 353a]		0.006	0.012		0.011		> 15	
CC(=O)N1CCC(C)(CN2CC(Cc3cn(-c4ccc(F)cc4C(=O)N(C)C(C)C)c4cncc(C)c34)C2)CC1 [Compound 84]	0.12	0.063		0.131			4.3	
CC(=O)N1CCC(CN2CCC(Cc3cn(-c4ccc(F)cc4C(=O)N(C)C(C)C)c4cncc(C)c34)C2C)CC1 (stereo not drawn) [Compound 228]	0.011	0.01	0.008				5.8	
